One test concerns the target PI3K-alpha (Homo sapiens, UniProt P42336). Description: PI3K-alpha fluorescence polarization assay. The test is classed as biochemical. The settings on record: read-out: PI3Kα Avg. IC50. In general terms: Fluorescence polarisation rises when a labelled molecule tumbles more slowly, as on binding a larger partner.
For another test, the target named is PI3K-gamma (Homo sapiens, UniProt P48736). Description: PI3K-gamma fluorescence polarization assay. The test is classed as biochemical. The settings on record: PI3Kγ Avg. IC50. The essentials:
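Each isoform (5 ng) phosphorylated 2.5 μM diC8-PI(4,5)P2 at 25 μM ATP for one hour at 25° C in the presence of inhibitor. Reactions were then stopped with EDTA, and product was detected by fluorescence polarization using a GST-GRP1 PH domain and a BODIPY-TMR-labelled IP4 tracer.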

pIC50: −log10 of the molar value.

Chain of PI3K-gamma (P48736 whole entry, species assumed, the tested form may be a part, canonical isoform): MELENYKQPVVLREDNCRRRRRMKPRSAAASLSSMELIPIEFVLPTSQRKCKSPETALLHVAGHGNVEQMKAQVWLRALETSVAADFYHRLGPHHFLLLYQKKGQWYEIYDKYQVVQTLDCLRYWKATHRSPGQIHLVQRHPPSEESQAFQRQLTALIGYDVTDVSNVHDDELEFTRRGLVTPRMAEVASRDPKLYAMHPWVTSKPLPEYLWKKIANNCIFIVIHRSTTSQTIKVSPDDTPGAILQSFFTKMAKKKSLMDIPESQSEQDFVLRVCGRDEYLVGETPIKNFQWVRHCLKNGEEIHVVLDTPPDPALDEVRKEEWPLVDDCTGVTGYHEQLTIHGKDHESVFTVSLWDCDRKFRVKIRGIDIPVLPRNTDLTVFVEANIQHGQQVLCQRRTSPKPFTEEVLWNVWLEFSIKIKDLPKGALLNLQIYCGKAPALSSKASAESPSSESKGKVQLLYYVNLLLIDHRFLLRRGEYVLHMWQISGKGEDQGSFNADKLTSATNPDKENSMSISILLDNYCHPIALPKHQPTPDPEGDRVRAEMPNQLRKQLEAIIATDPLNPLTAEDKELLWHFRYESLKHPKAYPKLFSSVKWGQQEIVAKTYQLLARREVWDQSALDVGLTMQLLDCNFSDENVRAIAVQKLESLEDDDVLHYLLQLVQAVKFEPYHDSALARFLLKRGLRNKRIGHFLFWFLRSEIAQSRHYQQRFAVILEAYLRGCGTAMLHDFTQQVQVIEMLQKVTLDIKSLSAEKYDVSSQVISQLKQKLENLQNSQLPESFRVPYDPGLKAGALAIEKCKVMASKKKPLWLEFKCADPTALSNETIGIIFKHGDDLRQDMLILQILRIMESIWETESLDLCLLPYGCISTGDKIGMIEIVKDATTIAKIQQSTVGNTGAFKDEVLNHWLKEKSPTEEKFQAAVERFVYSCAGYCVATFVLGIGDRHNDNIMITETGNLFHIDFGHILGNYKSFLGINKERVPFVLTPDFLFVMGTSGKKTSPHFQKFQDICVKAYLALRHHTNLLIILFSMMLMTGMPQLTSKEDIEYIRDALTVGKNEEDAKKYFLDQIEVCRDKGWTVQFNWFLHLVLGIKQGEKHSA
Chain of PI3K-alpha (P42336 whole entry, species assumed): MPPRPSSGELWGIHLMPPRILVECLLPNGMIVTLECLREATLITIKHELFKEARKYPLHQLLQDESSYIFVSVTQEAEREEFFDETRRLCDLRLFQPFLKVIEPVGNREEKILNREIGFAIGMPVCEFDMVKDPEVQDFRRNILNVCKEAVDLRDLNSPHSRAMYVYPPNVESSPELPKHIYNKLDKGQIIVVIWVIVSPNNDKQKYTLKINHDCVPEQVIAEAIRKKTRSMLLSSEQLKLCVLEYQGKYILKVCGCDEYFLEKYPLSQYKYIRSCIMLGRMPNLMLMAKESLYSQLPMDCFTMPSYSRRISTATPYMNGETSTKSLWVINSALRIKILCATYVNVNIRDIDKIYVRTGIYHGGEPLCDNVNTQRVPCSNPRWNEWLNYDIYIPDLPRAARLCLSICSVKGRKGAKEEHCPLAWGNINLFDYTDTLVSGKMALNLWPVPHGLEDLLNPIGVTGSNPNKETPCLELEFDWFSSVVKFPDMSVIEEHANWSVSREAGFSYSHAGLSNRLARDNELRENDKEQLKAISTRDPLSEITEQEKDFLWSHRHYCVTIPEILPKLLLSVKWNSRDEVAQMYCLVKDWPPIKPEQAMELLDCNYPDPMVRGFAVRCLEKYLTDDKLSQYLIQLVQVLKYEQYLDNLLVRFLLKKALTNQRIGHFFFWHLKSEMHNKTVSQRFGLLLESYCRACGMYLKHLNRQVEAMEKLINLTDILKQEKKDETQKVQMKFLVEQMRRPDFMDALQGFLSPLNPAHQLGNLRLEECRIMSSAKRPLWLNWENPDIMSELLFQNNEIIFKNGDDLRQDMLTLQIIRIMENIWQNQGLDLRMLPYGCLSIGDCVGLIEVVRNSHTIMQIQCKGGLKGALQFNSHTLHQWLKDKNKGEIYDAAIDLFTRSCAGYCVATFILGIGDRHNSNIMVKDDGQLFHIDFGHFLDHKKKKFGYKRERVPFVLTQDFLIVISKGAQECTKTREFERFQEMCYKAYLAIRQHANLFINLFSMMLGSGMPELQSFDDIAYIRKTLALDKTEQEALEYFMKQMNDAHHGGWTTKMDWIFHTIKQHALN
Chain of PI3K-alpha (P27986 whole entry partner, species assumed): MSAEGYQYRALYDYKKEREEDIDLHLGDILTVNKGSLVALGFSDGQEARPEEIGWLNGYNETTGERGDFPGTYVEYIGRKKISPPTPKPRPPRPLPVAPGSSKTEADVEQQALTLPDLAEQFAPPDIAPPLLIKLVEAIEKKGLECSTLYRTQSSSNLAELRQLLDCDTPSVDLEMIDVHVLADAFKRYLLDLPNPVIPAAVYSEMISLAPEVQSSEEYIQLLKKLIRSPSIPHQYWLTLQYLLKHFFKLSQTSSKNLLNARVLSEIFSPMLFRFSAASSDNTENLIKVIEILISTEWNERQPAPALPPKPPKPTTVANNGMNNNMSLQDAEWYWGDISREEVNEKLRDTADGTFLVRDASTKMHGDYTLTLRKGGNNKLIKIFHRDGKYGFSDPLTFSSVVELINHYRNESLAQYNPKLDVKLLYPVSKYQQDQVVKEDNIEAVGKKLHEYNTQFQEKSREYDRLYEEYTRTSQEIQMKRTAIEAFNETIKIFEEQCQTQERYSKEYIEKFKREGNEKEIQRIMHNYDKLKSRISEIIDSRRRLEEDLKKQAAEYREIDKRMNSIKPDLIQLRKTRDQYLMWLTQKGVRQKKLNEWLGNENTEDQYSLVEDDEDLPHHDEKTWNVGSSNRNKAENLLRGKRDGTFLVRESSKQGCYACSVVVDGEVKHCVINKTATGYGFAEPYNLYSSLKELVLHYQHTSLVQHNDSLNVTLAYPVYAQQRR

As to `COc1ccc2c(c1)c(/C=C1\Oc3ccc(O)cc3C1=O)cn2CCCN(C)C` [Compound 515, (2Z)-2-({1-[3-(dimethylamino)propyl]-5-methoxy-1H-indol-3-yl}methylene)-5-hydroxy-1-benzofuran-3(2H)-one], the pIC50 was 5.93 on PI3K-alpha and 5.60 against PI3K-gamma.
For the compound `CCc1cc(OC)cc2c(/C=C3\Oc4cccc(O)c4C3=O)cn(CCCC#N)c12` [Compound 475, 4-{7-ethyl-3-[(Z)-(4-hydroxy-3-oxo-1-benzofuran-2(3H)-ylidene)methyl]-5-methoxy-1H-indol-1-yl}butanenitrile], the pIC50 on PI3K-alpha and on PI3K-gamma was < 5.00 in each case.
For the compound `CNC(=O)Nc1ccc2c(c1)C(=O)/C(=C/c1c(C(=O)NC)[nH]c3ccc(OC)cc13)O2` [Compound 603, 5-methoxy-N-methyl-3-[(Z)-{5-[(methylcarbamoyl)amino]-3-oxo-1-benzofuran-2(3H)-ylidene}methyl]-1H-indole-2-carboxamide], the pIC50 was 8.19 on PI3K-alpha and 6.99 at PI3K-gamma.
In the same order, the values of `CNCCCNC(=O)Nc1ccc2c(c1)C(=O)/C(=C/c1cn(CCN3CCN(C)CC3)c3ccc(OC)cc13)O2` [Compound 564, 1-[(2Z)-2-({5-methoxy-1-[2-(4-methylpiperazin-1-yl)ethyl]-1H-indol-3-yl}methylene)-3-oxo-2,3-dihydro-1-benzofuran-5-yl]-3-[3-(methylamino)propyl]urea] are 7.02 and 5.12.
For the compound `CCc1cc(O)cc2c1C(=O)C(=Cc1c[nH]c3ccc(OC)cc13)O2` [Compound 506, 4-ethyl-6-hydroxy-2-[(5-methoxy-1H-indol-3-yl)methylene]-1-benzofuran-3(2H)-one], the results for the pIC50 at PI3K-alpha and on PI3K-gamma were 6.88 and 5.82, respectively.
For `COc1ccc2c(c1)c(C=C1Oc3cccc(O)c3C1=O)c(C)n2CCCCN1CCN(C)CC1` [Example 135, 4-hydroxy-2-({5-methoxy-2-methyl-1-[4-(4-methylpiperazin-1-yl)butyl]-1H-indol-3-yl}methylene)-1-benzofuran-3(2H)-one], the negative-log IC50 (pIC50) on PI3K-alpha is 5.89; against PI3K-gamma it was 5.32.
In the same order, the values of `COc1ccc2c(c1)c(C=C1Oc3cccc(O)c3C1=O)c(C)n2C` [Example 121, 4-hydroxy-2-[(5-methoxy-1,2-dimethyl-1H-indol-3-yl)methylene]-1-benzofuran-3(2H)-one] are 6.50 and 5.27.
Regarding `CCc1cc(OC)cc2c(/C=C3\Oc4cc(O)ccc4C3=O)cn(CCN3CCN(C)CC3)c12` [Compound 473, (2Z)-2-({7-ethyl-5-methoxy-1-[2-(4-methylpiperazin-1-yl)ethyl]-1H-indol-3-yl}methylene)-6-hydroxy-1-benzofuran-3(2H)-one], the pIC50 on PI3K-alpha is 6.79; against PI3K-gamma, 5.58.
For `CNC(=O)Nc1cc(O)cc2c1C(=O)/C(=C/c1c[nH]c3ccc(OC)cc13)O2` [Compound 526, 1-{(2Z)-6-hydroxy-2-[(5-methoxy-1H-indol-3-yl)methylene]-3-oxo-2,3-dihydro-1-benzofuran-4-yl}-3-methylurea], the results for the negative logarithm of the IC50 (pIC50) at PI3K-alpha and against PI3K-gamma were 5.21 and < 5.00, respectively.
For `CNC(=O)Nc1ccc2c(c1)C(=O)/C(=C/c1c[nH]c3c(/C=C/CN(C)C)cc(OC)cc13)O2` [Compound 573, 1-[(2Z)-2-({7-[(1E)-3-(dimethylamino)prop-1-en-1-yl]-5-methoxy-1H-indol-3-yl}methylene)-3-oxo-2,3-dihydro-1-benzofuran-5-yl]-3-methylurea], the pIC50 on PI3K-alpha is 7.28; against PI3K-gamma it was 5.80.
Consider `Cn1c(-c2ccccc2)c(/C=C2\Oc3cc(O)cc(O)c3C2=O)c2c([N+](=O)[O-])cccc21` [Compound 499, (2Z)-4,6-dihydroxy-2-[(1-methyl-4-nitro-2-phenyl-1H-indol-3-yl)methylene]-1-benzofuran-3(2H)-one], for which the values for the pIC50 on PI3K-alpha and on PI3K-gamma were 6.47 and 5.45, respectively.
In the same order, the values of `COc1ccc2c(c1)c(C=C1Oc3cccc(O)c3C1=O)c(C)n2CCCCN1CCOCC1` [Example 136, 4-hydroxy-2-{[5-methoxy-2-methyl-1-(4-morpholin-4-ylbutyl)-1H-indol-3-yl]methylene}-1-benzofuran-3(2H)-one] are 6.63 and 5.61.
As for `COc1ccc2c(c1)c(C=C1Oc3cccc(O)c3C1=O)c(C)n2CCCCN1CCN(CCO)CC1` [Example 137, 4-hydroxy-2-[(1-{4-[4-(2-hydroxyethyl)piperazin-1-yl]butyl}-5-methoxy-2-methyl-1H-indol-3-yl)methylene]-1-benzofuran-3(2H)-one], the negative-log IC50 (pIC50) on PI3K-alpha is 6.32; against PI3K-gamma, 5.56.
As for `O=C1/C(=C/c2c(-c3ccccc3)[nH]c3ccccc23)Sc2ccccc21` [Example 274, (2Z)-2-[(2-phenyl-1H-indol-3-yl)methylene]-1-benzothiophen-3(2H)-one], the pIC50 on PI3K-alpha is 6.54; on PI3K-gamma it was 6.59.
Regarding `CCn1c(C)c(/C=C2\Oc3ccc(NC(=O)Nc4ccc(N(C)C)cc4)cc3C2=O)c2cc(OC)ccc21` [Compound 681, 1-[4-(dimethylamino)phenyl]-3-{(2Z)-2-[(1-ethyl-5-methoxy-2-methyl-1H-indol-3-yl)methylidene]-3-oxo-2,3-dihydro-1-benzofuran-5-yl}urea], the pIC50 was 7.94 on PI3K-alpha and 7.16 against PI3K-gamma.
Turning to `CNC(=O)Nc1ccc2c(c1)C(=O)/C(=C/c1c[nH]c3c(CN4CCN(C)CC4)cc(OC)cc13)O2` [Compound 571, 1-[(2Z)-2-({5-methoxy-7-[(4-methylpiperazin-1-yl)methyl]-1H-indol-3-yl}methylene)-3-oxo-2,3-dihydro-1-benzofuran-5-yl]-3-methylurea], the pIC50 is 6.21 at PI3K-alpha and 5.19 against PI3K-gamma.
Turning to `COc1ccc2[nH]c(-c3ccccc3)c(CC3Oc4cc(O)cc(O)c4C3=O)c2c1` (stereo not drawn) [Example 118, 4,6-dihydroxy-2-[(5-methoxy-2-phenyl-1H-indol-3-yl)methyl]-1-benzofuran-3(2H)-one], the results for the pIC50 on PI3K-alpha and against PI3K-gamma were 6.54 and 6.03, respectively.
The matching figures for `COc1ccc2c(c1)c(/C=C1\Oc3ccc(NC(N)=O)cc3C1=O)cn2CCCN(C)C` [Compound 537, 1-[(2Z)-2-({1-[3-(dimethylamino)propyl]-5-methoxy-1H-indol-3-yl}methylene)-3-oxo-2,3-dihydro-1-benzofuran-5-yl]urea]: 6.38 and < 5.00.
Take `Cn1cc(/C=C2\Oc3cc(O)cc(O)c3C2=O)c2c(-c3ccccc3)cccc21` [Compound 531, (2Z)-4,6-dihydroxy-2-[(1-methyl-4-phenyl-1H-indol-3-yl)methylene]-1-benzofuran-3(2H)-one]: the figures for the pIC50 on PI3K-alpha and against PI3K-gamma were 6.47 and 5.60, respectively.
For the compound `COc1ccc2c(c1)c(/C=C1\Oc3ccc(NC(C)=O)cc3C1=O)cn2CCCN(C)C` [Compound 525, N-[(2Z)-2-({1-[3-(dimethylamino)propyl]-5-methoxy-1H-indol-3-yl}methylene)-3-oxo-2,3-dihydro-1-benzofuran-5-yl]acetamide], the pIC50 is 5.89 at PI3K-alpha and < 5.00 at PI3K-gamma.
As to `N#CCCCn1cc(C=C2Oc3cc(O)cc(O)c3C2=O)c2cc(F)ccc21` [Example 231, 4-{3-[(4,6-dihydroxy-3-oxo-1-benzofuran-2(3H)-ylidene)methyl]-5-fluoro-1H-indol-1-yl}butanenitrile], the pIC50 at PI3K-alpha is 5.46; against PI3K-gamma it was < 5.00.
The matching figures for `CNC(=O)c1ccc2c(c1)C(=O)/C(=C/c1cn(CCCN(C)C)c3ccc(OC)cc13)O2` [Compound 539, (2Z)-2-({1-[3-(dimethylamino)propyl]-5-methoxy-1H-indol-3-yl}methylene)-Nmethyl-3-oxo-2,3-dihydro-1-benzofuran-5-carboxamide]: < 5.00 and < 5.00.
With `CCNC(=O)Nc1ccc2c(c1)C(=O)/C(=C/c1cn(C)c3cccc(-c4ccccc4)c13)O2` [Compound 543, 1-ethyl-3-{(2Z)-2-[(1-methyl-4-phenyl-1H-indol-3-yl)methylidene]-3-oxo-2,3-dihydro-1-benzofuran-5-yl}urea], the pIC50 on PI3K-alpha and against PI3K-gamma was < 5.00 each time.
For the compound `CNC(=O)Nc1ccc2c(c1)C(=O)/C(=C/c1c(-c3c(C)nn(C)c3C)[nH]c3ccc(OC)cc13)O2` [Compound 616, 1-[(2Z)-2-{[5-methoxy-2-(1,3,5-trimethyl-1H-pyrazol-4-yl)-1H-indol-3-yl]methylidene}-3-oxo-2,3-dihydro-1-benzofuran-5-yl]-3-methylurea], the pIC50 was 9.40 at PI3K-alpha and 8.32 at PI3K-gamma.
On to `CNC(=O)Nc1ccc2c(c1)C(=O)/C(=C/c1c(C)n(CCN3CCCC3)c3ccc(OC)cc13)O2` [Compound 611, 1-[(2Z)-2-{[5-methoxy-2-methyl-1-(2-pyrrolidin-1-ylethyl)-1H-indol-3-yl]methylidene}-3-oxo-2,3-dihydro-1-benzofuran-5-yl]-3-methylurea], for which the pIC50 was 7.71 at PI3K-alpha and 6.15 against PI3K-gamma.
In the same order, the values of `COc1ccc2c(c1)c(C=C1Oc3c(ccc(O)c3O)C1=O)c(C)n2CCCCl` [Example 124, 2-{[1-(3-chloropropyl)-5-methoxy-2-methyl-1H-indol-3-yl]methylene}-6,7-dihydroxy-1-benzofuran-3(2H)-one] are 7.19 and 5.91.
As for `CNC(=O)Nc1ccc2c(c1)C(=O)/C(=C/c1c(C)n(CCN3CCN(C)CC3)c3ccc(OC)cc13)O2` [Compound 556, 1-[(2Z)-2-({5-methoxy-2-methyl-1-[2-(4-methylpiperazin-1-yl)ethyl]-1H-indol-3-yl}methylene)-3-oxo-2,3-dihydro-1-benzofuran-5-yl]-3-methylurea], the pIC50 at PI3K-alpha is 8.67; against PI3K-gamma, 6.08.

In general, pIC50 refers to the IC50 on a negative log10 scale, so that one unit is a factor of ten.
